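Exposure lasted 48 hours, with cells grown in 96-well plates and compounds tested at five concentrations. Here, GI50 denotes the concentration required for 50% inhibition of growth. TGI: concentration producing complete growth inhibition.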
What was measured:
Test in all cases: NCI tumour cell line growth inhibition, 48 h
786-0 renal = tested on: 786-0 renal
A498 renal = tested on: A498 renal
A549 NSCLC = tested on: A549 NSCLC
ACHN renal = tested on: ACHN renal
BT-549 breast = tested on: BT-549 breast
CAKI-1 renal = tested on: CAKI-1 renal
CCRF-CEM leukemia = tested on: CCRF-CEM leukemia
COLO 205 colon = tested on: COLO 205 colon
DU-145 prostate = tested on: DU-145 prostate
EKVX NSCLC = tested on: EKVX NSCLC
HCC-2998 colon = tested on: HCC-2998 colon
HCT-116 colon = tested on: HCT-116 colon
HCT-15 colon = tested on: HCT-15 colon
HL-60(TB) leukemia = tested on: HL-60(TB) leukemia
HOP-62 NSCLC = tested on: HOP-62 NSCLC
HOP-92 NSCLC = tested on: HOP-92 NSCLC
HS 578T breast = tested on: HS 578T breast
HT29 colon = tested on: HT29 colon
IGROV1 ovarian = tested on: IGROV1 ovarian
K-562 leukemia = tested on: K-562 leukemia
KM12 colon = tested on: KM12 colon
LOX IMVI melanoma = tested on: LOX IMVI melanoma
M14 melanoma = tested on: M14 melanoma
MALME-3M melanoma = tested on: MALME-3M melanoma
MCF7 breast = tested on: MCF7 breast
MDA-MB-231 breast = tested on: MDA-MB-231 breast
MDA-MB-435 = tested on: MDA-MB-435
MDA-MB-468 breast = tested on: MDA-MB-468 breast
MOLT-4 leukemia = tested on: MOLT-4 leukemia
NCI-H226 lung = tested on: NCI-H226 lung
NCI-H23 lung = tested on: NCI-H23 lung
NCI-H460 lung = tested on: NCI-H460 lung
NCI-H522 lung = tested on: NCI-H522 lung
NCI/ADR-RES ovarian = tested on: NCI/ADR-RES ovarian
OVCAR-3 ovarian = tested on: OVCAR-3 ovarian
OVCAR-4 ovarian = tested on: OVCAR-4 ovarian
OVCAR-5 ovarian = tested on: OVCAR-5 ovarian
OVCAR-8 ovarian = tested on: OVCAR-8 ovarian
PC-3 prostate = tested on: PC-3 prostate
RXF 393 renal = tested on: RXF 393 renal
SF-268 CNS = tested on: SF-268 CNS
SF-295 CNS = tested on: SF-295 CNS
SF-539 CNS = tested on: SF-539 CNS
SK-MEL-2 melanoma = tested on: SK-MEL-2 melanoma
SK-MEL-28 melanoma = tested on: SK-MEL-28 melanoma
SK-MEL-5 melanoma = tested on: SK-MEL-5 melanoma
SK-OV-3 ovarian = tested on: SK-OV-3 ovarian
SN12C renal = tested on: SN12C renal
SNB-19 CNS = tested on: SNB-19 CNS
SNB-75 CNS = tested on: SNB-75 CNS
SR leukemia = tested on: SR leukemia
SW-620 colon = tested on: SW-620 colon
T-47D breast = tested on: T-47D breast
TK-10 renal = tested on: TK-10 renal
U251 CNS = tested on: U251 CNS
UACC-257 melanoma = tested on: UACC-257 melanoma
UACC-62 melanoma = tested on: UACC-62 melanoma
UO-31 renal = tested on: UO-31 renal

Compound: CC(=O)Oc1ccccc1C(=O)[Se]C(=NC(C)C)NC(C)C
- GI50 (786-0 renal): 1740 nM
- TGI (786-0 renal): 3210 nM
- GI50 (A498 renal): 3340 nM
- TGI (A498 renal): 20600 nM
- GI50 (A549 NSCLC): 3080 nM
- TGI (A549 NSCLC): > 100000 nM
- GI50 (ACHN renal): 1760 nM
- TGI (ACHN renal): 3160 nM
- GI50 (BT-549 breast): 1520 nM
- TGI (BT-549 breast): 2880 nM
- GI50 (CAKI-1 renal): 1680 nM
- TGI (CAKI-1 renal): 3050 nM
- GI50 (CCRF-CEM leukemia): 3170 nM
- TGI (CCRF-CEM leukemia): > 100000 nM
- GI50 (COLO 205 colon): 2350 nM
- TGI (COLO 205 colon): 5060 nM
- GI50 (DU-145 prostate): 1940 nM
- TGI (DU-145 prostate): 3590 nM
- GI50 (EKVX NSCLC): 1670 nM
- TGI (EKVX NSCLC): 3160 nM
- GI50 (HCC-2998 colon): 1860 nM
- TGI (HCC-2998 colon): 3430 nM
- GI50 (HCT-116 colon): 1600 nM
- TGI (HCT-116 colon): 3140 nM
- GI50 (HCT-15 colon): 1840 nM
- TGI (HCT-15 colon): 3690 nM
- GI50 (HL-60(TB) leukemia): 2180 nM
- TGI (HL-60(TB) leukemia): 5700 nM
- GI50 (HOP-62 NSCLC): 777 nM
- TGI (HOP-62 NSCLC): 2400 nM
- GI50 (HOP-92 NSCLC): 1910 nM
- TGI (HOP-92 NSCLC): 4320 nM
- GI50 (HS 578T breast): 2400 nM
- TGI (HS 578T breast): 9150 nM
- GI50 (HT29 colon): 2310 nM
- TGI (HT29 colon): 5840 nM
- GI50 (IGROV1 ovarian): 1720 nM
- TGI (IGROV1 ovarian): 3230 nM
- GI50 (K-562 leukemia): 2840 nM
- TGI (K-562 leukemia): 9190 nM
- GI50 (KM12 colon): 1900 nM
- TGI (KM12 colon): 3860 nM
- GI50 (LOX IMVI melanoma): 1750 nM
- TGI (LOX IMVI melanoma): 3420 nM
- GI50 (M14 melanoma): 1840 nM
- TGI (M14 melanoma): 3370 nM
- GI50 (MALME-3M melanoma): 1860 nM
- TGI (MALME-3M melanoma): 3450 nM
- GI50 (MCF7 breast): 1950 nM
- TGI (MCF7 breast): 4000 nM
- GI50 (MDA-MB-231 breast): 2160 nM
- TGI (MDA-MB-231 breast): 4960 nM
- GI50 (MDA-MB-435): 1730 nM
- TGI (MDA-MB-435): 3240 nM
- GI50 (MDA-MB-468 breast): 1750 nM
- TGI (MDA-MB-468 breast): 3480 nM
- GI50 (MOLT-4 leukemia): 2350 nM
- TGI (MOLT-4 leukemia): 6150 nM
- GI50 (NCI-H226 lung): 1840 nM
- TGI (NCI-H226 lung): 5700 nM
- GI50 (NCI-H23 lung): 1940 nM
- TGI (NCI-H23 lung): 4150 nM
- GI50 (NCI-H460 lung): 815 nM
- TGI (NCI-H460 lung): 4390 nM
- GI50 (NCI-H522 lung): 1690 nM
- TGI (NCI-H522 lung): 3320 nM
- GI50 (NCI/ADR-RES ovarian): 2220 nM
- TGI (NCI/ADR-RES ovarian): 4980 nM
- GI50 (OVCAR-3 ovarian): 1900 nM
- TGI (OVCAR-3 ovarian): 3560 nM
- GI50 (OVCAR-4 ovarian): 1720 nM
- TGI (OVCAR-4 ovarian): 3130 nM
- GI50 (OVCAR-5 ovarian): 1760 nM
- TGI (OVCAR-5 ovarian): 3340 nM
- GI50 (OVCAR-8 ovarian): 1870 nM
- TGI (OVCAR-8 ovarian): 3580 nM
- GI50 (PC-3 prostate): 1700 nM
- TGI (PC-3 prostate): 3610 nM
- GI50 (RXF 393 renal): 1720 nM
- TGI (RXF 393 renal): 3170 nM
- GI50 (SF-268 CNS): 2340 nM
- TGI (SF-268 CNS): 6350 nM
- GI50 (SF-295 CNS): 369 nM
- TGI (SF-295 CNS): 1630 nM
- GI50 (SF-539 CNS): 1750 nM
- TGI (SF-539 CNS): 3150 nM
- GI50 (SK-MEL-2 melanoma): 1970 nM
- TGI (SK-MEL-2 melanoma): 4010 nM
- GI50 (SK-MEL-28 melanoma): 1790 nM
- TGI (SK-MEL-28 melanoma): 3270 nM
- GI50 (SK-MEL-5 melanoma): 1830 nM
- TGI (SK-MEL-5 melanoma): 3510 nM
- GI50 (SK-OV-3 ovarian): 1810 nM
- TGI (SK-OV-3 ovarian): 3330 nM
- GI50 (SN12C renal): 1720 nM
- TGI (SN12C renal): 3160 nM
- GI50 (SNB-19 CNS): 1090 nM
- TGI (SNB-19 CNS): 2370 nM
- GI50 (SNB-75 CNS): 1350 nM
- TGI (SNB-75 CNS): 2660 nM
- GI50 (SR leukemia): 2110 nM
- TGI (SR leukemia): 5440 nM
- GI50 (SW-620 colon): 1920 nM
- TGI (SW-620 colon): 4110 nM
- GI50 (T-47D breast): 2200 nM
- TGI (T-47D breast): 5260 nM
- GI50 (TK-10 renal): 1630 nM
- TGI (TK-10 renal): 3070 nM
- GI50 (U251 CNS): 1530 nM
- TGI (U251 CNS): 3200 nM
- GI50 (UACC-257 melanoma): 1960 nM
- TGI (UACC-257 melanoma): 3750 nM
- GI50 (UACC-62 melanoma): 1940 nM
- TGI (UACC-62 melanoma): 4150 nM
- GI50 (UO-31 renal): 1680 nM
- TGI (UO-31 renal): 3050 nM
